Assay: RP, Thermo Scientific Hypersil GOLD, 1.9 µm, 40 °C, 0.4 mL/min; A: water + 0.1% formic acid, pH 3; B: acetonitrile + 0.1% formic acid, pH 3; gradient (min/%B) 0/0 1/0 11/100 13/100 14/0 16/0
Conditions: stereoisomer not certain

LC retention time [min]	SMILES
5.43	CCCCC(O)C(=O)O (centres undefined) [2-hydroxycaproic acid]
0.62	NCC(=O)NCC(=O)O [Gly-Gly]
0.6	NC(CCCC(N)C(=O)O)C(=O)O (centres undefined) [LL-2-6-DIAMINOHEPTANEDIOATE]
0.66	OCC1OC(O)C(O)C1O (centres undefined) [RIBOSE]
0.64	O=P(O)(O)O [Phosphoric acid_+H+]
3.49	O=C(O)c1ccc(CO)o1 [5-hydroxymethyl-2-furancarboxylic acid]
0.81	O=C(O)c1cccnc1 [Nicotinic acid]
0.74	O=CNCC(=O)O [N-FORMYLGLYCINE]
0.89	O=C(O)C(=O)CS [MERCAPTOPYRUVATE]
5.31	Cc1ccccc1C(=O)NCC(=O)O [2-Methylhippuric acid (ortho-Methylhippuric acid)]
3.2	C=C(CC(=O)O)C(=O)O [ITACONATE]
1.67	CCCCC(N)C(=O)O (centres undefined) [NORLEUCINE]
1.2	Nc1ccn(C2OC(COP(=O)(O)OP(=O)(O)O)C(O)C2O)c(=O)n1 (centres undefined) [CYTIDINE DIPHOSPHATE]
0.71	CC(=O)NCCCCN [N-ACETYLPUTRESCINE]
0.64	O=CC(O)CO (centres undefined) [GLYCERALDEHYDE]
4.68	Nc1nc2ncc(CNc3ccc(C(=O)NC(CCC(=O)O)C(=O)O)cc3)nc2c(=O)[nH]1 (centres undefined) [FOLATE]

Continued, compound first:

SMILES	LC retention time [min]
CC(CCCC(C)(C)O)C1CCC2C3CC=C4CC(O)CCC4(C)C3CCC12C (centres undefined) [25-HYDROXYCHOLESTEROL]	11.9
OC1COC(O)C(O)C1O (centres undefined) [XYLOSE]	0.64
NCCc1cc(O)c(O)cc1O [6-HYDROXYDOPAMINE]	0.77
CC12CCC(=O)C=C1CCC1C2CCC2(C)C1CCC2(O)C(=O)CO (centres undefined) [CORTEXOLONE]	7.48
CCOC(=O)Cc1c[nH]c2ccccc12 [ETHYL 3-INDOLEACETATE]	8.03
NCCS(=O)O [HYPOTAURINE]	0.63
CSCC1OC(n2cnc3c(N)ncnc32)C(O)C1O (centres undefined) [METHYLTHIOADENOSINE]	4.41
NCCc1ccc(O)c(O)c1 [DOPAMINE]	0.83
C[S+](CCC(N)C(=O)[O-])CC1OC(n2cnc3c(N)ncnc32)C(O)C1O (centres undefined) [S-ADENOSYLMETHIONINE]	0.59
O=c1ccc2cc(O)ccc2[nH]1 [2-6-quinolinediol]	4.44
C=C(C)C1CC=C(C)C(=O)C1 [(R)-(-)-Carvone]	8.19
CC(CCC(=O)O)C1CCC2C3CCC4CC(O)CCC4(C)C3CC(=O)C12C (centres undefined) [5b-cholanic acid-3a-OL-12-ONE]	8.76
Nc1cccc2ccccc12 [1-NAPHTHYLAMINE]	5.87

From the RepoRT retention time repository
